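In this assay, cells in 96-well plates receive the compound at five concentrations for 48 hours. Endpoints are linearly interpolated between the surrounding concentrations. Abbreviation: GI50, concentration required for 50% inhibition of growth. At the TGI there is no net growth.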

Among the test systems are M19-MEL melanoma; RXF-631 renal; DLD-1 colon; LXFL 529 NSCLC; KM20L2 colon; PC-3 prostate; BT-549 breast; HS 578T breast.
Common to all, as to assay: NCI tumour cell line growth inhibition, 48 h

For `CCOC(=O)N1C2C=C(C)C(C3C(C)C(=O)N31)N(C(=O)c1ccccc1)O2` (stereo not given), the TGI in the experiment with M19-MEL melanoma, in the experiment on RXF-631 renal, in the experiment with DLD-1 colon and with LXFL 529 NSCLC was > 100 µM throughout.

Consider `CSc1nc(-c2ccccc2)c2c(n1)-c1ccccc1CC2`, for which the TGI in the experiment on M19-MEL melanoma, with RXF-631 renal, in the experiment with KM20L2 colon, in the experiment on DLD-1 colon and with LXFL 529 NSCLC was > 100 µM throughout.

As to `N/N=C(\Cc1ccccc1)NN=C(N)N`, the TGI in the experiment with M19-MEL melanoma, with RXF-631 renal, in the experiment with DLD-1 colon and in the experiment with LXFL 529 NSCLC was > 100 µM throughout.

As to `O=C1c2ccccc2C(=O)C1C(c1ccc([N+](=O)[O-])cc1)C1C(=O)c2ccccc2C1=O`, the TGI was 29.7 µM in the experiment with RXF-631 renal, > 100 µM in the experiment with KM20L2 colon, > 100 µM with DLD-1 colon and > 100 µM in the experiment with LXFL 529 NSCLC.

Regarding `CCOc1ccc(NC(=O)CC2SC(N)=NC2=O)cc1` (stereo not given), the TGI in the experiment on M19-MEL melanoma, in the experiment on KM20L2 colon, in the experiment on DLD-1 colon and in the experiment on LXFL 529 NSCLC was > 100 µM throughout.

Turning to `COc1cc(Oc2c(O)c(C)c(OC)c(C(C)=O)c2O)c(C(C)=O)c(O)c1C`, the TGI with M19-MEL melanoma, with RXF-631 renal, in the experiment on KM20L2 colon, in the experiment on DLD-1 colon and with LXFL 529 NSCLC was > 100 µM in each case.

Regarding `COC(=O)[C@]1(C)CCC[C@@]2(C)C1CCC1=C[C@@]3(C(C)C)CC[C@]12OO3` (stereo not given in full), the TGI in the experiment on M19-MEL melanoma amounted to 65.7 µM; in the experiment on RXF-631 renal, 63.8 µM; with DLD-1 colon, 71.5 µM; with LXFL 529 NSCLC it was 74.1 µM.

In the case of `COc1ccc(COCC(Cn2ccnc2)OCc2ccc(C(=O)O)cc2)cc1` (stereo not given), the TGI in the experiment with M19-MEL melanoma, with RXF-631 renal, in the experiment with KM20L2 colon, in the experiment on DLD-1 colon and with LXFL 529 NSCLC was > 100 µM each time.

Regarding `CC(=O)Oc1ccccc1C(=O)C1c2cccc(O)c2C(=O)c2c(O)cccc21`, the TGI in the experiment on M19-MEL melanoma turned out to be 2.94 µM; in the experiment on RXF-631 renal, 11.1 µM; in the experiment with KM20L2 colon it was 5.57 µM; in the experiment on DLD-1 colon, 12.2 µM; in the experiment with LXFL 529 NSCLC, 4.03 µM.

`COC(=O)C(Cc1nc2ccc(Cl)cc2[nH]c1=O)C(=O)C(=O)Nc1ccccc1[N+](=O)[O-]` (stereo not given): the TGI in the experiment with M19-MEL melanoma, in the experiment with RXF-631 renal, in the experiment on KM20L2 colon, in the experiment on DLD-1 colon and with LXFL 529 NSCLC was > 100 µM throughout.

For `CCOC(=O)/C(C#N)=C1\N[C@H](C(=O)OCC)CO1`, the TGI in the experiment with M19-MEL melanoma, with RXF-631 renal, with KM20L2 colon, in the experiment on DLD-1 colon and in the experiment with LXFL 529 NSCLC was > 100 µM in each case.

With `CC(=O)NC(CCCN(Cc1ccccc1)C(=O)N(CCCl)N=O)C(=O)NCc1ccccc1` (stereo not given), the TGI with KM20L2 colon, in the experiment on DLD-1 colon and in the experiment on LXFL 529 NSCLC was > 100 µM each time.

For the compound `CN(C)c1ccc(N=Nc2c([O-])ccc3ccccc23)cc1.[C-]#[O+].[C-]#[O+].[Ir]`, the GI50 with M19-MEL melanoma is 20.3 µM; with KM20L2 colon it was 26 µM; in the experiment on DLD-1 colon it was 22.5 µM; in the experiment on PC-3 prostate, 17.7 µM; in the experiment with BT-549 breast it was 19.6 µM; in the experiment on HS 578T breast it was 19.3 µM. In addition, the GI50 in the experiment on LXFL 529 NSCLC was 17.2 µM. In addition, the TGI in the experiment on M19-MEL melanoma was found to be 50.2 µM; in the experiment on KM20L2 colon it was 59 µM; in the experiment with DLD-1 colon, 47.8 µM; with PC-3 prostate it was 34.5 µM; with BT-549 breast, 56.7 µM; in the experiment with HS 578T breast, 70.9 µM. The TGI with LXFL 529 NSCLC was determined as 31.2 µM.

Consider `CC(CCCOC(c1ccccc1)(c1ccccc1)c1ccccc1)OC(=O)Nc1cc([N+](=O)[O-])cc([N+](=O)[O-])c1` (stereo not given), for which the TGI in the experiment with M19-MEL melanoma, in the experiment on RXF-631 renal, in the experiment on DLD-1 colon and in the experiment with LXFL 529 NSCLC was > 100 µM throughout.

Turning to `N#Cc1ccccc1NC(=O)c1ccccc1`, the TGI with M19-MEL melanoma, with KM20L2 colon and in the experiment with DLD-1 colon was > 100 µM each time.

In the case of `FC(F)(F)C12C34C=CC5(CCC6(C=CC1(CC3)O6)C52C(F)(F)F)O4` (stereo not given), the TGI with M19-MEL melanoma, in the experiment on KM20L2 colon and in the experiment with LXFL 529 NSCLC was > 100 µM in each case.

Consider `O=C(O)c1c[nH]cc1C(=O)O`, for which the TGI in the experiment on M19-MEL melanoma, in the experiment with KM20L2 colon, with DLD-1 colon and in the experiment on LXFL 529 NSCLC was > 100 µM in each case.

On to `C/C=C(/CCCCNCCCC)[Si](C)(C)C`, for which the TGI was found to be 33 µM in the experiment on M19-MEL melanoma; 31.3 µM with RXF-631 renal; 21.7 µM with KM20L2 colon; 29.8 µM with DLD-1 colon; 29.3 µM with LXFL 529 NSCLC.

As to `O=C(Nc1cc(Cl)c(Cl)cc1Cl)C(=O)C(C(=O)c1ccc(Cl)c(Cl)c1)C1OC(=O)c2ccccc21` (stereo not given), the TGI was determined as 37.9 µM in the experiment with M19-MEL melanoma, 33 µM in the experiment on KM20L2 colon, 23.4 µM in the experiment on DLD-1 colon and 22.9 µM in the experiment on LXFL 529 NSCLC.

Take `O=c1[nH]cc(OCC(F)(F)F)c(=O)[nH]1`: the TGI in the experiment on M19-MEL melanoma, in the experiment with RXF-631 renal, in the experiment on KM20L2 colon, with DLD-1 colon and in the experiment with LXFL 529 NSCLC was > 100 µM each time.

Source of the values: PubChem BioAssay (NCI).
